Target: T1, ATIYA1 (Arabidopsis thaliana, UniProt F4HP22)
T1 construct: gene At1g13130; secreted from Komagataella phaffii X-33 (pPICZalpha-A), N-glycosylated, Ni-NTA purified
Experiment: HPAEC-PAD hydrolysis time course
Type: biochemical
Conditions: 100 µM substrate, 10 nM enzyme, 0.1 M sodium acetate pH 5.0, 30°C

T1 sequence (F4HP22 entry or part of it): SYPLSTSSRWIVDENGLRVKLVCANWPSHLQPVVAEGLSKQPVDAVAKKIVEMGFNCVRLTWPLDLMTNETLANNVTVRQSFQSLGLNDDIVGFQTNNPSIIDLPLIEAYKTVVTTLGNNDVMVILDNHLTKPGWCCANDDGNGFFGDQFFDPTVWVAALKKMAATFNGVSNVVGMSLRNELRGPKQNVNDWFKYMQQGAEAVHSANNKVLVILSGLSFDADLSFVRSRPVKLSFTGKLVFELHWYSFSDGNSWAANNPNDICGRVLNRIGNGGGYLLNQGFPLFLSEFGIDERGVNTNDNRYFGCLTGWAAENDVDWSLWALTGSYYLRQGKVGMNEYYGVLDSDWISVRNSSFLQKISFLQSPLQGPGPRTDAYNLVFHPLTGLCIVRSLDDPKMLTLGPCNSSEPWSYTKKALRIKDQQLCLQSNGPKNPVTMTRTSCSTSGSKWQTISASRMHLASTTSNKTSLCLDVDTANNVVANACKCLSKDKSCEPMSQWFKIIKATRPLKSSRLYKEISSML

Compound | HPAEC-PAD hydrolysis time course
CO[C@@H]1O[C@H](CO[C@@H]2O[C@H](CO[C@@H]3O[C@H](CO[C@@H]4O[C@H](CO[C@@H]5O[C@H](CO[C@@H]6O[C@H](CO)[C@H](O)[C@H](O)[C@H]6O)[C@H](O)[C@H](O)[C@H]5O)[C@H](O)[C@H](O)[C@H]4O)[C@H](O)[C@H](O)[C@H]3O)[C@H](O)[C@H](O)[C@H]2O)[C@H](O)[C@H](O)[C@H]1O [methyl-β-1,6-galactohexaoside] | preferring higher degrees of polymerization such as methyl-β-1,6-galactopentaoside and methyl-β-1,6-galactohexaoside
CO[C@@H]1O[C@H](CO[C@@H]2O[C@H](CO[C@@H]3O[C@H](CO[C@@H]4O[C@H](CO[C@@H]5O[C@H](CO)[C@H](O)[C@H](O)[C@H]5O)[C@H](O)[C@H](O)[C@H]4O)[C@H](O)[C@H](O)[C@H]3O)[C@H](O)[C@H](O)[C@H]2O)[C@H](O)[C@H](O)[C@H]1O [methyl-β-1,6-galactopentaoside] | preferring higher degrees of polymerization such as methyl-β-1,6-galactopentaoside and methyl-β-1,6-galactohexaoside

— publication PMC12751061, “Expression and characterization of an endo-β-1,6-galactanase from Arabidopsis thaliana” (Biochemical Journal, 2025)
